Test systems include DU-145 prostate; LOX IMVI melanoma; OVCAR-4 ovarian; OVCAR-8 ovarian; SF-295 CNS; SF-539 CNS; SK-MEL-2 melanoma; T-47D breast; UACC-62 melanoma; UO-31 renal.
What all share (assay): NCI-60 cell line screen, 48 h

The structures appear in SMILES notation.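 Growth conditions: 96-well plates. Treatment: test compound, 48 hours, 5 concentrations. Analysis: linear interpolation between bracketing concentrations; unreached endpoints set to highest concentration. Abbreviation: GI50, concentration required for 50% inhibition of growth. TGI: total growth inhibition.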 A value given as a limit tells only on which side of the number the result lay.

As to `CCON=C1C(C)(C)C(C)(C)C(C)(C)C1(C)C`, the TGI in the assay on DU-145 prostate, in the assay with LOX IMVI melanoma, with OVCAR-4 ovarian, in the assay with OVCAR-8 ovarian, with SF-295 CNS and with SF-539 CNS was more than 100 µM throughout. For the same compound, the TGI with SK-MEL-2 melanoma, in the assay with T-47D breast and with UACC-62 melanoma was more than 100 µM each time.
`O=C1c2ccccc2-c2nccc3cc(Cl)nc1c23`: the GI50 is 1.13 µM in the assay with LOX IMVI melanoma; 1.64 µM in the assay on OVCAR-4 ovarian; 4.61 µM with SF-295 CNS; 4.88 µM with SF-539 CNS; 2.83 µM with SK-MEL-2 melanoma; 0.385 µM in the assay with T-47D breast. The GI50 in the assay with UACC-62 melanoma is 2770 nM. Besides, the TGI with LOX IMVI melanoma is 2.33 µM; in the assay with OVCAR-4 ovarian, 3 µM; in the assay on SF-295 CNS, more than 88.9 µM; with SF-539 CNS it was 24.7 µM; in the assay with SK-MEL-2 melanoma, 7.28 µM; in the assay with T-47D breast, 1.72 µM. In addition, the TGI in the assay with UACC-62 melanoma is 13 µM.
Turning to `COc1cc2c(cc1OCCCOC1=C=C=C(c3ccc4c(c3)c3cc(-c5ccc(OCCCOc6cc7c(cc6OC)C(=O)N6CCC[C@H]6C=N7)cc5)ccc3n4S(=O)(=O)c3ccc(C)cc3)C=C1)N=C[C@@H]1CCCN1C2=O`, the GI50 in the assay with DU-145 prostate was 1.13 µM; in the assay on LOX IMVI melanoma, 1.49 µM; in the assay with OVCAR-4 ovarian, 3.58 µM; with OVCAR-8 ovarian it was 1.54 µM; in the assay with SF-295 CNS it was 1.14 µM; in the assay with SF-539 CNS, 1.74 µM. Besides, the GI50 with T-47D breast is 1.3 µM; in the assay with UACC-62 melanoma it was 1890 nM; in the assay with UO-31 renal it was 3.21 µM. Moreover, the TGI with DU-145 prostate is 2.73 µM; with LOX IMVI melanoma, 7.51 µM; with OVCAR-4 ovarian it was 30.9 µM; in the assay on OVCAR-8 ovarian, more than 17 µM; in the assay with SF-295 CNS, 4.62 µM; in the assay on SF-539 CNS it was 6.3 µM. Further, the TGI with T-47D breast is 19.1 µM; in the assay with UACC-62 melanoma, 8.76 µM; in the assay on UO-31 renal, 11.4 µM.
`CCN(CC)c1ccc(N=C2C=C(C(=O)Nc3ccc(S(C)(=O)=O)cc3)C(=O)c3ccccc32)c(C)c1`: the GI50 with DU-145 prostate was more than 100 µM; with LOX IMVI melanoma it was 7.98 µM; in the assay on OVCAR-4 ovarian it was 8.91 µM; in the assay with OVCAR-8 ovarian, more than 100 µM; in the assay on SF-295 CNS, 3.32 µM; with SF-539 CNS, 1.07 µM. Besides, the GI50 with T-47D breast is 51.9 µM; in the assay on UACC-62 melanoma it was 734 nM; with UO-31 renal, 67.5 µM. In addition, the TGI in the assay on DU-145 prostate was more than 100 µM; with LOX IMVI melanoma, more than 100 µM; in the assay on OVCAR-4 ovarian it was more than 100 µM; in the assay with OVCAR-8 ovarian, more than 100 µM; in the assay with SF-295 CNS, 39.5 µM; with SF-539 CNS, more than 100 µM. The TGI in the assay with T-47D breast, in the assay with UACC-62 melanoma and in the assay with UO-31 renal was more than 100 µM each time.
With `ON(CCc1ccncc1)Cc1ccccc1`, the TGI with DU-145 prostate, with LOX IMVI melanoma, with OVCAR-4 ovarian, in the assay on OVCAR-8 ovarian, with SF-295 CNS and with SF-539 CNS was more than 100 µM in each case. In addition, the TGI with T-47D breast, with UACC-62 melanoma and with UO-31 renal was more than 100 µM each time.
Take `COC(=O)Nc1nc2ccc(Oc3ccc(NC(=O)Nc4cccc(Br)c4)cc3)cc2[nH]1`: the GI50 is 3.15 µM in the assay with DU-145 prostate; 2.32 µM with LOX IMVI melanoma; 3.39 µM in the assay with OVCAR-4 ovarian; 4.32 µM with OVCAR-8 ovarian; 1.18 µM with SF-295 CNS; 2.04 µM with SF-539 CNS. Moreover, the GI50 in the assay on T-47D breast was 2.17 µM; with UACC-62 melanoma it was 906 nM; with UO-31 renal it was more than 16.6 µM. Also, the TGI was more than 14.6 µM with DU-145 prostate; more than 11.9 µM in the assay with LOX IMVI melanoma; 7.42 µM in the assay with OVCAR-4 ovarian; more than 20 µM in the assay on OVCAR-8 ovarian; more than 19.2 µM in the assay with SF-295 CNS; more than 20.8 µM in the assay on SF-539 CNS. Also, the TGI in the assay on T-47D breast was more than 16.7 µM; with UACC-62 melanoma, 7.41 µM; in the assay with UO-31 renal, more than 25 µM.
As for `Cc1cc(=O)c2cc(N=Cc3ccc([N+](=O)[O-])o3)ccc2o1`, the TGI in the assay on DU-145 prostate, in the assay with LOX IMVI melanoma, in the assay on OVCAR-4 ovarian, with SF-295 CNS, in the assay on SF-539 CNS and with SK-MEL-2 melanoma was more than 100 µM each time. Besides, the TGI in the assay on T-47D breast, with UACC-62 melanoma and in the assay on UO-31 renal was more than 100 µM in each case.
As for `Cc1ccc2c[c]1[Hg][CH2]COS2(=O)=O`, the GI50 in the assay on DU-145 prostate was 18.8 µM; in the assay on LOX IMVI melanoma, 18.5 µM; in the assay with OVCAR-4 ovarian, 11.3 µM; in the assay on OVCAR-8 ovarian, 16 µM; with SF-539 CNS it was 18 µM; in the assay with SK-MEL-2 melanoma, 21.4 µM. For the same compound, the GI50 in the assay on T-47D breast is 15 µM; in the assay on UACC-62 melanoma, 17200 nM; in the assay with UO-31 renal, 17.3 µM. Further, the TGI in the assay with DU-145 prostate turned out to be 32.8 µM; in the assay with LOX IMVI melanoma, 36.4 µM; in the assay with OVCAR-4 ovarian, 23.4 µM; with OVCAR-8 ovarian, 29.5 µM; with SF-539 CNS it was 32.5 µM; in the assay with SK-MEL-2 melanoma, 38.4 µM. For the same compound, the TGI was determined as 29.7 µM in the assay on T-47D breast, 30.9 µM with UACC-62 melanoma and 31 µM with UO-31 renal.
With `O=C(Nc1c(Cl)cc([N+](=O)[O-])cc1Cl)C(=O)C1C(=O)NC(=S)NC1=O`, the TGI in the assay on LOX IMVI melanoma, with OVCAR-4 ovarian, with OVCAR-8 ovarian, in the assay on SF-295 CNS, in the assay on SF-539 CNS and in the assay on SK-MEL-2 melanoma was more than 100 µM in each case. Besides, the TGI in the assay with T-47D breast, in the assay on UACC-62 melanoma and with UO-31 renal was more than 100 µM in each case.
With `NC(N)=N/N=C/c1c(-c2cccs2)nc2sccn12`, the GI50 in the assay on DU-145 prostate was 13.6 µM; in the assay with LOX IMVI melanoma, 14 µM; in the assay on OVCAR-4 ovarian, 5.89 µM; with OVCAR-8 ovarian it was 24.1 µM; in the assay with SF-295 CNS, 11.5 µM; with SF-539 CNS, 12.4 µM. Moreover, the GI50 in the assay with T-47D breast was 14.6 µM; with UACC-62 melanoma, 14800 nM; in the assay with UO-31 renal, 17 µM. In addition, the TGI in the assay with DU-145 prostate came to 26.4 µM; in the assay on LOX IMVI melanoma, 27 µM; with OVCAR-4 ovarian it was 20 µM; with OVCAR-8 ovarian, 49 µM; in the assay with SF-295 CNS it was 23.6 µM; in the assay on SF-539 CNS it was 25.5 µM. Moreover, the TGI in the assay with T-47D breast came out at 28.6 µM; with UACC-62 melanoma, 28.3 µM; in the assay on UO-31 renal, 33.7 µM.

For the origin of these results see PubChem BioAssay (NCI).
